≈ marks a conversion by molar mass, not a printed value.
Test system: not listed separately
Assay: Solubility in 0.086N HCl containing 34 mM NaCl
Format: physicochemical

Question: For c1ccc(CN2CCC(Nc3ccc4[nH]ncc4c3)CC2)cc1, which solubility is on record?
Answer: The solubility was 881 µg/mL (≈ 2880 µM).

Question: Which solubility does the source give for O=C(NCc1c(F)cccc1F)Nc1ccc2[nH]ncc2c1 here?
Answer: Its solubility is 5 µg/mL (≈ 16.5 µM).

Test system: not listed separately
Assay: Solubility in 50 mM KH2PO4 containing 24 mM NaOH
Format: physicochemical

Question: With c1ccc(CN2CCC(Nc3ccc4[nH]ncc4c3)CC2)cc1 as the compound, how does the solubility read?
Answer: The solubility was 495 µg/mL (≈ 1620 µM).

Question: Which solubility does the source give for O=C(NCc1c(F)cccc1F)Nc1ccc2[nH]ncc2c1 here?
Answer: Its solubility is under 1 µg/mL.

Molecular target: Rho-associated protein kinase (Homo sapiens, UniProt O75116+Q13464)

Question: Which IC50 does the source give for CCCN1CCCC(Nc2ccc3[nH]ncc3c2)C1 (stereo not drawn) here?
Answer: The IC50 was 780 nM.

Question: For O=C(NC1CCN(Cc2ccccc2)CC1)c1ccc2[nH]ncc2c1, which IC50 is on record?
Answer: The IC50 was 540 nM.

Question: For c1ccc(CN[C@H]2CC[C@H](Nc3ccc4[nH]ncc4c3)CC2)cc1, which IC50 is on record?
Answer: The IC50 was 520 nM.

Question: Which IC50 does the source give for CN(CCNc1ccc2[nH]ncc2c1)Cc1ccccc1 here?
Answer: Its IC50 is 7900 nM.

Question: Which IC50 does the source give for Fc1ccc(CN2CCC(CNc3ccc4[nH]ncc4c3)CC2)cc1 here?
Answer: Its IC50 is over 10000 nM.

Question: Which IC50 does the source give for Cn1ncc2cc(NC3CCCN(Cc4ccccc4)C3)ccc21 (stereo not drawn) here?
Answer: Its IC50 is over 10000 nM.

Question: With c1c[nH]c(CN2CCCC(Nc3ccc4[nH]ncc4c3)C2)c1 (stereo not drawn) as the compound, how does the IC50 read?
Answer: Its IC50 is 11 nM.

Question: For c1cc(CN2CCCC(Nc3ccc4[nH]ncc4c3)C2)c[nH]1 (stereo not drawn), which IC50 is on record?
Answer: Its IC50 is over 1000 nM.

Question: With Fc1ccc(CN2CCCC(Nc3ccc4[nH]ncc4c3)C2)cc1 (stereo not drawn) as the compound, how does the IC50 read?
Answer: Its IC50 is 25 nM.

Question: Which IC50 does the source give for Fc1ccc(CN2CCCC(Nc3ccc4[nH]ncc4c3)C2)cc1F (stereo not drawn) here?
Answer: Its IC50 is 10 nM.

Question: With Nc1ccc(CN2CCCC(Nc3ccc4[nH]ncc4c3)C2)cc1 (stereo not drawn) as the compound, how does the IC50 read?
Answer: The IC50 was 10 nM.

Question: With Clc1ccccc1CN1CCC(Nc2ccc3[nH]ncc3c2)CC1 as the compound, how does the IC50 read?
Answer: The IC50 was 440 nM.

Question: With Clc1cccc(CN2CCC(Nc3ccc4[nH]ncc4c3)CC2)c1 as the compound, how does the IC50 read?
Answer: The IC50 was 290 nM.

Question: With c1ccc(CN2CCCC(Nc3ccc4[nH]ncc4c3)C2)nc1 (stereo not drawn) as the compound, how does the IC50 read?
Answer: Its IC50 is 240 nM.

Question: With c1cncc(CN2CCCC(Nc3ccc4[nH]ncc4c3)C2)c1 (stereo not drawn) as the compound, how does the IC50 read?
Answer: Its IC50 is 72 nM.

Question: With c1ccc(CN2CCCC(Nc3ccc4[nH]ncc4c3)C2)cc1 (stereo not drawn) as the compound, how does the IC50 read?
Answer: The IC50 was 20 nM.

Question: For O=C(NCc1ccc(Cl)cc1Cl)Nc1ccc2[nH]ncc2c1, which IC50 is on record?
Answer: Its IC50 is 220 nM.

Question: For c1coc(CN2CCCC(Nc3ccc4[nH]ncc4c3)C2)c1 (stereo not drawn), which IC50 is on record?
Answer: Its IC50 is 65 nM.

Question: With c1cc(CN2CCCC(Nc3ccc4[nH]ncc4c3)C2)co1 (stereo not drawn) as the compound, how does the IC50 read?
Answer: The IC50 was 180 nM.

Question: With O=C(NCc1c(Cl)cccc1Cl)Nc1ccc2[nH]ncc2c1 as the compound, how does the IC50 read?
Answer: The IC50 was 20 nM.

Question: For Clc1ccc(CN2CCC(Nc3ccc4[nH]ncc4c3)CC2)cc1, which IC50 is on record?
Answer: The IC50 was 290 nM.

Question: Which IC50 does the source give for O=C(Nc1ccc2[nH]ncc2c1)NC1CCN(Cc2ccccc2)CC1 here?
Answer: Its IC50 is over 10000 nM.

Question: For O=C(NCc1ccccc1)Nc1ccc2[nH]ncc2c1, which IC50 is on record?
Answer: The IC50 was 260 nM.

Question: Which IC50 does the source give for c1ccc(CN2CCC(Oc3ccc4[nH]ncc4c3)CC2)cc1 here?
Answer: The IC50 was 100 nM.

Question: For O=C(NCc1c(F)cccc1F)Nc1ccc2[nH]ncc2c1, which IC50 is on record?
Answer: Its IC50 is 85 nM.

Question: For c1ccc(CN2CCCC(Oc3ccc4[nH]ncc4c3)C2)cc1 (stereo not drawn), which IC50 is on record?
Answer: The IC50 was 10 nM.

Question: For COc1ccc(CN2CCCC(Nc3ccc4[nH]ncc4c3)C2)cc1 (stereo not drawn), which IC50 is on record?
Answer: Its IC50 is 16 nM.

Question: Which IC50 does the source give for Cc1n[nH]c2ccc(NC3CCCN(Cc4ccccc4)C3)cc12 (stereo not drawn) here?
Answer: The IC50 was 150 nM.

Question: With c1ccc(CN2CCC(Nc3ccc4[nH]ncc4c3)C2)cc1 (stereo not drawn) as the compound, how does the IC50 read?
Answer: The IC50 was 32 nM.

Question: With Cc1ccc(CN2CCCC(Nc3ccc4[nH]ncc4c3)C2)cc1 (stereo not drawn) as the compound, how does the IC50 read?
Answer: Its IC50 is 9 nM.

Question: Which IC50 does the source give for Clc1ccccc1CN1CCC(Nc2ccc3[nH]ncc3c2)C1 (stereo not drawn) here?
Answer: The IC50 was 45 nM.

Question: Which IC50 does the source give for Clc1cccc(CN2CCCC(Nc3ccc4[nH]ncc4c3)C2)c1 (stereo not drawn) here?
Answer: Its IC50 is 19 nM.

Question: Which IC50 does the source give for COc1cc(CN2CCCC(Nc3ccc4[nH]ncc4c3)C2)cc(OC)c1 (stereo not drawn) here?
Answer: The IC50 was 80 nM.

Question: For O=[N+]([O-])c1ccc(CN2CCCC(Nc3ccc4[nH]ncc4c3)C2)cc1 (stereo not drawn), which IC50 is on record?
Answer: The IC50 was 87 nM.

Question: Which IC50 does the source give for c1ccc(CN[C@H]2CC[C@@H](Nc3ccc4[nH]ncc4c3)CC2)cc1 here?
Answer: The IC50 was 320 nM.

Question: Which IC50 does the source give for Nc1cccc(CN2CCCC(Nc3ccc4[nH]ncc4c3)C2)c1 (stereo not drawn) here?
Answer: The IC50 was 35 nM.

Question: Which IC50 does the source give for Clc1ccccc1CN1CCCC(Nc2ccc3[nH]ncc3c2)C1 (stereo not drawn) here?
Answer: The IC50 was 13 nM.

Question: Which IC50 does the source give for O=C(Nc1ccc2[nH]ncc2c1)C1CCCN(Cc2ccccc2)C1 (stereo not drawn) here?
Answer: The IC50 was 18 nM.

Question: With Clc1ccc(CN2CCCC(Nc3ccc4[nH]ncc4c3)C2)cc1 (stereo not drawn) as the compound, how does the IC50 read?
Answer: Its IC50 is 11 nM.

Question: With O=C(Nc1ccc2[nH]ncc2c1)C1CCN(Cc2ccccc2)CC1 as the compound, how does the IC50 read?
Answer: The IC50 was 136 nM.

Question: Which IC50 does the source give for CC(C)CCN1CCCC(Nc2ccc3[nH]ncc3c2)C1 (stereo not drawn) here?
Answer: Its IC50 is 340 nM.

Question: Which IC50 does the source give for Nc1ccccc1CN1CCCC(Nc2ccc3[nH]ncc3c2)C1 (stereo not drawn) here?
Answer: Its IC50 is 85 nM.

Test system: not listed separately
Assay: Solubility in water
Format: physicochemical

Question: Which solubility does the source give for c1ccc(CN2CCC(Nc3ccc4[nH]ncc4c3)CC2)cc1 here?
Answer: The solubility was 794 µg/mL (≈ 2590 µM).

Question: With O=C(NCc1c(F)cccc1F)Nc1ccc2[nH]ncc2c1 as the compound, how does the solubility read?
Answer: Its solubility is 5 µg/mL (≈ 16.5 µM).

From ChEMBL document CHEMBL1144500, “Design and synthesis of Rho kinase inhibitors (II)” (Bioorg Med Chem, 2007)
